Results reported in patent publication US4966914A, “Oculoselective beta-blockers as antiglaucoma agents” (E. I. Du Pont de Nemours and Company, priority 1988, dated 1990).
Like-named read-outs stand apart in the source and are kept apart here. Blank lines part the entries; values can stand above or below the compound they belong to.

Columns and labels:
[1] = test system: isoproterenol-induced changes in heart rate or diastolic blood pressure; test: Effect on systemic beta-blockade upon topical administration (isoproterenol-induced changes in heart rate or diastolic blood pressure); format: in vivo, Mongrel dogs; conditions: for Diastolic blood pressure response to isoproterenol: from-to; for Diastolic blood pressure (DBP) / Heart rate (HR): Table 1, 0.5%; for Summary: BP / Summary: BP change / Summary: HR change: Table 1 summary; for Summary: BP: from ISO only to end of experiment; for Summary: BP change / Summary: HR change: given as "down"
Description: Mongrel dogs were anesthetized and control readings were made at -45 and -30 minutes. Following the -30 minute reading, an infusion of isoproterenol (0.5 μg/kg/min) was begun and maintained during the course of the experiment. Two readings of pretreatment isoproterenol responses were made at […] and at zero minutes.
At zero minutes, a 50 μL sample of test compound was administered topically. […] Heart rate was obtained directly from the strip chart recording.

[2] = Ocular bioavailability in rabbits; format: in vivo, New Zealand White Rabbits; conditions: for Absorption across the cornea: 0.25% Timolol or 0.5% compound 1, topical; for Tmax: rabbit, topical or ocular; for Area under the concentration time curve (AUC0-240'), AH / Area under the concentration time curve (AUC0-240'), I-CBC / Area under the concentration time curve (AUC0-240'), cornea: 0-240 min
Description: The ocular bioavailability of Timolol and compound 1 (monopivaloyl ester prodrug of compound 2) was evaluated in New Zealand White Rabbits. Fifty μL of a solution of 0.25% Timolol or 0.5% compound 1 (both in the same vehicle) were administered onto the cornea of both eyes of 48 rabbits (24 rabbits/compound). At 5, 15, 30, 60, 120, 180, 240, and 360 minutes after dosing, 3 rabbits (6 eyes)/compound were killed. The cornea, aqueous humor (AH), iris-ciliary body complex (I-CBC) were quickly removed from the eyes, weighed and processed to determine tissue levels of Timolol or compound 1 and compound 2.

ATRIA = target: T1, ATRIA (Cavia porcellus, UniProt H0W3H1); test: In vitro potency (pA2), beta-blocking, atria; format: cell-based
T1 construct: ATRIA; from tissue
Description: (§1) The in vitro potency (pA2), in vivo potency and duration of action (DOA) of the compounds of the present invention are recorded in Tables 2 to 4. These pharmacological activities were determined using the methods described in U.S. patent 4,582,855 issued Apr.

beta-blocking effects = test: In vivo beta-blocking potency and duration of action (DOA); conditions: for DOA (duration of action): Tables 2 and 4
Description: as §1

[3] = 50 μL, 0.25% solution, single or repeated topical applications
[4] = 15 min post-treatment, isoproterenol infusion
[5] = 30 min post-treatment, isoproterenol infusion
[6] = 45 min post-treatment, isoproterenol infusion
[7] = 60 min post-treatment (dose), isoproterenol infusion
[8] = 75 min post-treatment, isoproterenol infusion
[9] = 90 min post-treatment, isoproterenol infusion
[10] = 105 min post-treatment, isoproterenol infusion
[11] = 120 min post-treatment (dose), isoproterenol infusion
[12] = 135 min post-treatment, isoproterenol infusion
[13] = 150 min post-treatment, isoproterenol infusion
[14] = 165 min post-treatment, isoproterenol infusion
[15] = 180 min post-treatment, isoproterenol infusion
[16] = aqueous humor, AH, 0.25% Timolol or 0.5% compound 1, read-out: Time of peak level in aqueous humor (AH) (converted)
[17] = cornea, 0.25% Timolol or 0.5% compound 1, read-out: Time of peak level in cornea (converted)
[18] = Table 3, atria, read-out: pA2 ATRIA (converted)
[19] = Tables 2 and 4, read-out: In-vitro potency pA2 (converted)
[20] = 50 μL, 0.25% solution, single topical application
[21] = AH, 0.25% Timolol or 0.5% compound 1
[22] = I-CBC, 0.25% Timolol or 0.5% compound 1
[23] = cornea, 0.25% Timolol or 0.5% compound 1

T1 sequence (H0W3H1 1-470): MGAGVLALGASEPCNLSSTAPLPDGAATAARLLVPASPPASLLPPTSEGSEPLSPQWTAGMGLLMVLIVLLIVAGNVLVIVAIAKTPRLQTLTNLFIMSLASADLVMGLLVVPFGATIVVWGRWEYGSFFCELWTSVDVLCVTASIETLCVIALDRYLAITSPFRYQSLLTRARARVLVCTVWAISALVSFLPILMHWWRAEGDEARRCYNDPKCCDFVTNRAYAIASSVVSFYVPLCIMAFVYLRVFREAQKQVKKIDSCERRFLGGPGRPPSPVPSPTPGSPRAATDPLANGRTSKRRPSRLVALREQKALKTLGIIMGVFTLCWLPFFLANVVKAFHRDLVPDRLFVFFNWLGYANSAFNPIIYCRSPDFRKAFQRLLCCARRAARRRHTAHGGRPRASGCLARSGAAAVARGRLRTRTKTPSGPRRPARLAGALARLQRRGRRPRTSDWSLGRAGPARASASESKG

Structure (SMILES): Cc1cc(O)c(O)cc1C(=O)OCC(CNC(C)(C)CNC(=O)C1CCOC1)OC(=O)C(C)(C)C (centres unmarked) [Compound 1]
Effect on diastolic blood pressure response to isoproterenol ([1]; 50 μL at 0.5 or 1.0% solution): without any significant effect
Systemic beta-blockade of isoproterenol-induced increase in heart rate ([1]; 50 μL at 0.5 or 1.0% solution): no significant systemic beta-blockade
Diastolic blood pressure response to isoproterenol ([1]; 50 μL at 0.5 or 1.0% solution): 58-63 mmHg
Effect on diastolic blood pressure response to isoproterenol [1, 3]: no effect
Effect on heart rate response to isoproterenol [1, 3]: no effect
Diastolic blood pressure (DBP) ([1]; 0 min, ISO only): 58 mmHg
Heart rate (HR) ([1]; 0 min, ISO only): 199 bpm
Diastolic blood pressure (DBP) [1, 4]: 56 mmHg
Heart rate (HR) [1, 4]: 195 bpm
Diastolic blood pressure (DBP) [1, 5]: 55 mmHg
Heart rate (HR) [1, 5]: 192 bpm
Diastolic blood pressure (DBP) [1, 6]: 54 mmHg
Heart rate (HR) [1, 6]: 188 bpm
Diastolic blood pressure (DBP) [1, 7]: 55 mmHg
Heart rate (HR) [1, 7]: 189 bpm
Diastolic blood pressure (DBP) [1, 8]: 55 mmHg
Heart rate (HR) [1, 8]: 189 bpm
Diastolic blood pressure (DBP) [1, 9]: 56 mmHg
Heart rate (HR) [1, 9]: 189 bpm
Diastolic blood pressure (DBP) [1, 10]: 57 mmHg
Heart rate (HR) [1, 10]: 190 bpm
Diastolic blood pressure (DBP) [1, 11]: 59 mmHg
Heart rate (HR) [1, 11]: 192 bpm
Diastolic blood pressure (DBP) [1, 12]: 61 mmHg
Heart rate (HR) [1, 12]: 192 bpm
Diastolic blood pressure (DBP) [1, 13]: 60 mmHg
Heart rate (HR) [1, 13]: 192 bpm
Diastolic blood pressure (DBP) [1, 14]: 60 mmHg
Heart rate (HR) [1, 14]: 192 bpm
Diastolic blood pressure (DBP) [1, 15]: 63 mmHg
Heart rate (HR) [1, 15]: 193 bpm
Diastolic blood pressure (DBP) ([1]; -30 min, baseline): 87 mmHg
Heart rate (HR) ([1]; -30 min, baseline): 143 bpm
Summary: BP [1]: 58-63 mmHg
Summary: BP change [1]: 5 mmHg
Summary: HR change [1]: 6 bpm
Systemic beta-blocking activity as compared to Timolol ([1]; conclusion in words): has systemic beta-blocking activity as compared to Timolol
Selectivity of peripheral effects ([1]; high concentration, unlike Timolol): selective for beta-1 (heart rate) responses
Absorption across the cornea [2]: rapidly absorbed across the cornea
Metabolism of compound 1 to compound 2 ([2]; 0.5% compound 1, topical): rapid metabolism of compound 1 to compound 2
AUC in AH relative to AUC of Timolol in AH ([2]; 0.5% compound 1 vs 0.25% Timolol, greater than Timolol): 3 ×
Detectability in I-CBC ([2]; I-CBC, 0.5% compound 1): not detectable
Tmax [2, 16]: 30 min
Tmax [2, 17]: 5 min

Structure (SMILES): CC(=O)NCC(C)(C)NCC(O)COC(=O)c1cc(O)c(O)cc1C (centres unmarked) [Me CH3]
Kb (ATRIA; [18]): 25.1 nM

Structure (SMILES): CCCC(=O)NCC(C)(C)NCC(O)COC(=O)c1cc(O)c(O)cc1C (centres unmarked)
Kb (ATRIA; [18]): 6.31 nM

Structure (SMILES): Cc1cc(O)c(O)cc1C(=O)OCC(O)CNC(C)(C)CNC(=O)C1CC1 (centres unmarked)
Kb (ATRIA; [18]): 20 nM

Structure (SMILES): Cc1cc(O)c(O)cc1C(=O)OCC(O)CNC(C)(C)CNC(=O)C(C)C (centres unmarked)
DOA (duration of action) (beta-blocking effects): 42 min
Kb (ATRIA; [19]): 6.31 nM

Structure (SMILES): CC(C)(C)NC[C@H](O)COc1nsnc1N1CCOCC1 [Timolol, reference compound]
Antagonism of diastolic blood pressure response to isoproterenol [1, 20]: long lasting antagonism
Effect on heart rate response to isoproterenol [1, 20]: significant inhibitory effect
Diastolic blood pressure response to isoproterenol [1, 20]: 72-107 mmHg
Diastolic blood pressure (DBP) ([1]; 0 min, ISO only): 72 mmHg
Heart rate (HR) ([1]; 0 min, ISO only): 197 bpm
Diastolic blood pressure (DBP) [1, 4]: 93 mmHg
Heart rate (HR) [1, 4]: 175 bpm
Diastolic blood pressure (DBP) [1, 5]: 94 mmHg
Heart rate (HR) [1, 5]: 158 bpm
Diastolic blood pressure (DBP) [1, 6]: 96 mmHg
Heart rate (HR) [1, 6]: 155 bpm
Diastolic blood pressure (DBP) [1, 7]: 99 mmHg
Heart rate (HR) [1, 7]: 157 bpm
Diastolic blood pressure (DBP) [1, 8]: 102 mmHg
Heart rate (HR) [1, 8]: 157 bpm
Diastolic blood pressure (DBP) [1, 9]: 103 mmHg
Heart rate (HR) [1, 9]: 152 bpm
Diastolic blood pressure (DBP) [1, 10]: 104 mmHg
Heart rate (HR) [1, 10]: 153 bpm
Diastolic blood pressure (DBP) [1, 11]: 105 mmHg
Heart rate (HR) [1, 11]: 157 bpm
Diastolic blood pressure (DBP) [1, 12]: 107 mmHg
Heart rate (HR) [1, 12]: 154 bpm
Diastolic blood pressure (DBP) [1, 13]: 107 mmHg
Heart rate (HR) [1, 13]: 153 bpm
Diastolic blood pressure (DBP) [1, 14]: 105 mmHg
Heart rate (HR) [1, 14]: 153 bpm
Diastolic blood pressure (DBP) [1, 15]: 107 mmHg
Heart rate (HR) [1, 15]: 159 bpm
Heart rate (HR) ([1]; -30 min, baseline): 144 bpm
Summary: BP [1]: 71-107 mmHg
Summary: BP change [1]: 35 mmHg
Summary: HR change [1]: 38 bpm
Systemic beta-blockade ([1]; four topical applications, 50 μL, 0.25% solution, 60 minute intervals): prolonged systemic beta-blockade
Absorption across the cornea [2]: rapidly absorbed across the cornea into the AH and I-CBC
Area under the concentration time curve (AUC0-240'), AH [2, 21]: 9,022 ng/100 μL/min
Peak level in aqueous humor (AH) [2, 21]: 131 ng/100 μL
Area under the concentration time curve (AUC0-240'), I-CBC [2, 22]: 533 ng/50 mg/min
Peak level in iris-ciliary body complex (I-CBC) ([2]; I-CBC, 0.25% Timolol): 58 ng/50 mg
Area under the concentration time curve (AUC0-240'), cornea [2, 23]: 68,293 ng/50 mg/min
Peak cornea level ([2]; cornea, 50 μL onto cornea, 0.25% Timolol or 0.5% compound 1): 770 ng/50 mg
Tmax [2, 16]: 30 min
Tmax ([2]; iris-ciliary body, I-CBC, 0.25% Timolol, read-out: Time of peak level in I-CBC (converted)): 30 min
Tmax [2, 17]: 5 min

Structure (SMILES): Cc1cc(O)c(O)cc1C(=O)OCC(O)CNC(C)(C)CNC(=O)C1CCOCC1 (centres unmarked)
DOA (duration of action) (beta-blocking effects): 26 min
Kb (ATRIA; [19]): 5.01 nM

Structure (SMILES): Cc1cc(O)c(O)cc1C(=O)OCC(O)CNC(C)(C)CNC(=O)Cc1ccccc1 (centres unmarked)
Kb (ATRIA; [18]): 100 nM

Continued, in another order:

Kb (ATRIA; [18]): 12.6 nM
Structure (SMILES): COc1cc(O)c(O)cc1C(=O)OCC(O)CNC(C)(C)CNC(=O)C(C)C (centres unmarked) [drawing 30]

Kb (ATRIA; [19]): 3.98 nM
Structure (SMILES): Cc1cc(O)c(O)cc1C(=O)OCC(O)CNC(C)(C)CNC(=O)C1CCCCC1 (centres unmarked)
DOA (duration of action), second value after the slash (beta-blocking effects; Table 2, cell prints 31/>60): > 60 min
DOA (duration of action) (beta-blocking effects): 31 min

Kb (ATRIA; [18]): 31.6 nM
Structure (SMILES): COc1ccc(C(=O)NCC(C)(C)NCC(O)COC(=O)c2cc(O)c(O)cc2C)cc1 (centres unmarked)

Kb (ATRIA; [18]): 79.4 nM
Structure (SMILES): CC(C)C(=O)NCC(C)(C)NCC(O)COC(=O)c1cc(O)c(O)cc1N (centres unmarked)

Kb (ATRIA; [18]): 20 nM
Structure (SMILES): Cc1cc(O)c(O)cc1C(=O)OCC(O)CNC(C)(C)CNC(=O)c1ccccc1 (centres unmarked)

Area under the concentration time curve (AUC0-240'), AH [2, 21]: 27,377 ng/100 μL/min
Area under the concentration time curve (AUC0-240'), I-CBC [2, 22]: 2,981 ng/50 mg/min
Area under the concentration time curve (AUC0-240'), cornea [2, 23]: 95,789 ng/50 mg/min
Stability in rabbit ocular tissues ([2]; rabbit ocular tissues): stable in rabbit ocular tissues
Structure (SMILES): Cc1cc(O)c(O)cc1C(=O)OCC(O)CNC(C)(C)CNC(=O)C1CCOC1 (centres unmarked) [Compound 2]
